According to PMC5291163 (Journal of the American Chemical Society, 2016):
Where two headings read alike, the source gives them in different places. Square brackets hold non-standard residues; d marks the D form. Peptide text beside a SMILES is read from it. * marks the point of attachment. Pentanoyl(5-PPh3+) = O=C(CCCC[P+](c1ccccc1)(c1ccccc1)c1ccccc1)*; d(pY) = N[C@H](Cc1ccc(OP(=O)(O)O)cc1)C(=O)O; pY = N[C@@H](Cc1ccc(OP(=O)(O)O)cc1)C(=O)O; NBD = O=[N+]([O-])c1ccc(*)c2nonc12; Cbz = O=C(OCc1ccccc1)*; βAla = NCCC(=O)O; CH2F = FC*

How the values were obtained:
[1] = system: alkaline phosphatase (ALP); conditions: substrate 0.1 wt%, ALP 0.1 U/mL
[2] = ALP 1 U/mL, 24 h, PBS buffer pH 7.4
[3] = system: Saos2 cells
[4] = system: HS5 cells; conditions: 100 µM
[5] = system: active caspase3; conditions: Saos2 cells, 50 µM, first 3 h of treatment
[6] = TEM of nanostructures before and after addition of ALP; assay type: physicochemical; conditions: 100 µM, before ALP

## O=C(CCCC[P+](c1ccccc1)(c1ccccc1)c1ccccc1)NCCCC[C@H](NC(=O)[C@H](Cc1ccc(OP(=O)(O)O)cc1)NC(=O)[C@H](Cc1ccccc1)NC(=O)[C@H](Cc1ccccc1)NC(=O)CCNc1ccc([N+](=O)[O-])c2nonc12)C(=O)O [L-1P] ({NBD-βAla}-FF[pY]K(Pentanoyl(5-PPh3+))-OH)
[1]
  percentage of enzymatic dephosphorylation after 24 h: ~80%
  t1/2 of ALP catalyzed dephosphorylation: 68.4 min
[2]; 25 µM precursor
  increase of the SLS signal after addition of ALP: 120 fold
[2]; 50 µM precursor
  increase of the SLS signal after addition of ALP: 48 fold
[2]; 100 µM precursor
  increase of the SLS signal after addition of ALP: 18 fold
[2]; 200 µM precursor
  increase of the SLS signal after addition of ALP: 14 fold
[3]; 50 µM, 48h
  cell viability of unstimulated Saos2: 71.7%
[4]
  cytotoxicity against HS5 cells: almost innocuous
[5]
  expression level of active caspase3 relative to untreated cells: changes little

## COC(=O)C[C@H](NC(=O)[C@H](C)NC(=O)[C@@H](NC(=O)OCc1ccccc1)C(C)C)C(=O)CF [zVAD-fmk, reference compound] (Cbz-Val-Ala-Asp(OMe)-CH2F)
[3]; 45 µM
  toxicity on Saos2 cells of the inhibitor itself: no toxicity

## O=C(CCCC[P+](c1ccccc1)(c1ccccc1)c1ccccc1)NCCCC[C@@H](NC(=O)[C@@H](Cc1ccc(OP(=O)(O)O)cc1)NC(=O)[C@@H](Cc1ccccc1)NC(=O)[C@@H](Cc1ccccc1)NC(=O)CCNc1ccc([N+](=O)[O-])c2nonc12)C(=O)O [D-1P] ({NBD-βAla}-[dF][dF][d(pY)][dK](Pentanoyl(5-PPh3+))-OH)
[6]
  diameter of uniform nanoparticles (TEM): 25 ±2 nm
[1]
  percentage of enzymatic dephosphorylation after 24 h: about 90%
  t1/2 of ALP catalyzed dephosphorylation: 33 min
[2]; 25 µM precursor
  increase of the SLS signal after addition of ALP: 43 fold
[2]; 50 µM precursor
  increase of the SLS signal after addition of ALP: 10 fold
[2]; 100 µM precursor
  increase of the SLS signal after addition of ALP: 8 fold
[2]; 200 µM precursor
  increase of the SLS signal after addition of ALP: 4 fold
[4]
  cytotoxicity against HS5 cells: almost innocuous
[5]
  expression level of active caspase3 relative to untreated cells: about 1.7 fold
